Our source for the Ki and Kd values is PMC3627370 (Journal of the American Chemical Society, 2013).

For orientation: Ki means the dissociation constant of the complex between target and ligand, obtained from inhibition or displacement. Higher therefore signals weaker binding. By Kd is commonly meant the free concentration of one partner at which half of the binding sites on the other are occupied at equilibrium, for simple one-to-one binding. High values mean lower affinity, low ones higher affinity.

Test [1] addresses T1, nicotinamide phosphoribosyltransferase (NAMPT) (Homo sapiens, UniProt P43490). It is filed as biochemical.
The target in test [2] is T1, nicotinamide phosphoribosyltransferase (NAMPT). Put plainly: dissociation constant determination at […] °C, pH […]. The class given is binding.

T1 sequence (P43490 whole entry): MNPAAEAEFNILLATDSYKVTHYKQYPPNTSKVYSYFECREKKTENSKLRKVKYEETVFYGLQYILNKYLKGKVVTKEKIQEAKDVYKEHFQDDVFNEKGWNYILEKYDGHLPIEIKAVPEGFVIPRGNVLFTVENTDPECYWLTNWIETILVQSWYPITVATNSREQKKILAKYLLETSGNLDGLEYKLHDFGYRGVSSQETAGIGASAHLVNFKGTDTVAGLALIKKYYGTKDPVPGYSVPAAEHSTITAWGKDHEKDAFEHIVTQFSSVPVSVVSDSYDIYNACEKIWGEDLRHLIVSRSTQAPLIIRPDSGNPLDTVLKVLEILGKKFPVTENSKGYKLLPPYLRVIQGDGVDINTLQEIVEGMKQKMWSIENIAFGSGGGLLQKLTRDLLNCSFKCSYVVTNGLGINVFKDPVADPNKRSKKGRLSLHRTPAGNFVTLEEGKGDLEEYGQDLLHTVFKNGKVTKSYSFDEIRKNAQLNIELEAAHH

Regarding `O=[N+]([O-])c1ccc(O[C@@H]2O[C@H](COP(=O)(O)O)[C@@H](O)[C@H]2O)cc1` [5P-pNR, 5-phospho-p-nitrophenyl β-D-ribofuranoside], the Ki in test [1] is 2.5 µM.
Take `NC(=O)c1ccc[n+]([C@@H]2O[C@H](COP(=O)([O-])O)[C@@H](O)[C@H]2O)c1` [NMN, nicotinamide mononucleotide]: the Kd in test [2] stood at 34 ± 2 µM.
